Patent US6340755B1, “5H-Pyrano[2,3-d: 6,5-d']dipyrimidine derivatives having an antibacterial, antiviral and immuno-modulating activity” (Natural Drug Sciences LLC, priority 2000, dated 2002)

How the values were obtained:
[1] = test system: McCoy and L929 cell cultures; experiment: Control of the test compounds on toxicity relative to cell cultures in the chlamydia experiment; type: cell-based
Procedure: In the work reported here we used McCoy and L929 cell cultures obtained from the Institute of Cytology of the Russian Academy of Sciences. The cells were grown in flasks of neutral glass in RPMI-1640 medium with an addition of 10% fetal calf serum. The experiment was placed in glass (toxicity-free) flat-bottomed flasks and covered with glass. The cells were introduced into the medium in a final concentration of 1·10 cells/ml. After a monolayer was obtained, standard infectious doses of chlamydia that had been maintained in a frozen state at −70° C. were added to test tubes. […] The sample was centrifuged at 2400 g for 60 min at room temperature and incubated at 37° C. for 2 hours. […] A parallel series of samples was run using medium without the cycloheximide in order to avoid its influence on the test substances. The samples were incubated for 48 hours in a CO2 incubator.

[2] = test system: primary culture of human lymphocytes; experiment: Interferon-inducing activity in primary culture of human lymphocytes (immunoenzyme IFN determination); type: cell-based; parameters: unit of the concentration uncertain; details: 24 hours of incubation
Procedure: Interferon synthesis induction by the claimed preparations was conducted on a primary culture of human lymphocytes (the cells in the human body are the main producers of interferon). To obtain a culture of the lymphocytes we used fresh blood (12 hours after collection) from healthy […] (not from the second group).
The lymphocyte concentration was determined after staining with methyl blue and the number of cells in the Goryaev chamber was calculated. […] The final concentration of the lymphocytes in the induction mixture was 3·10^6 cells/ml. The following controls were processed in parallel with the test samples:
The control and the experimental samples were incubated for 24 hours at 37° C. Following incubation the samples were centrifuged at 2000 g to settle out the cellular elements and the INF-containing supernatant was taken from the samples and analyzed for INF content. The cell residue was resuspended in the same volume of nutrient medium, stained with a vital dye—trypan blue—and the number of cells in the Goryaev chamber was calculated (as described above) to determine the cytotoxic activity of the preparations.
For the quantitative determination of INF in the control and experimental samples we used the ProCon IF2 Plus immunoenzyme test system sold by TOO Proteinovyi Kontur. To determine the quantity of interferon s in the sample we used a solid-phase immunoenzyme method utilizing horseradish peroxidase as the enzyme indicator. The activity of the bound peroxidase was measured using an automated photometer at a wavelength of 450 nm for the microplanchets with a microprocessor. […] On the basis of the results obtained we plotted a calibration curve that allowed us to obtain data expressed in International Units (IU) from the microprocessor of the automated photometer. The results of the analysis are expressed in IU of activity of INF per ml in the given induction system containing 3·10^6 lymphocytes/ml. Every experimental and control point was studied in 4 parallel runs.
The results obtained were analyzed statistically using the t-test and the confidence interval at p=0.05 was calculated. Analysis of the convergence of the results of the parallel tests were performed.

Vero cell culture = experiment: Control of compounds (toxicity of compounds) in the herpes experiment; type: cell-based; details: Vero cells
Procedure: (§1) The antiviral activity was studied relative to the virus herpes simplex type I (VPG-I/Leningrad/248/88) by a standard method. The virus was grown on a reinoculated Vero cell culture obtained from the cell culture bank of the Institute of Cytology of the Russian Academy of Sciences.
To cells grown on medium RPMI-1640 with 10% calf serum and placed in the wells of a 96-well plate, the virus was added to give a final concentration of 10 particles/ml and […] We used 5 individual wells for every concentration tested. The plate was incubated for 60 min at 38° C. in a CO2 incubator. After incubation the virus was removed and new medium was added that contained the claimed compounds in the test concentrations.
4. Control of compounds (toxicity of compounds).

[3] = test system: herpes simplex type I (VPG-I/Leningrad/248/88); experiment: Activity on herpes simplex virus: cytopathic action of the virus on Vero cells; type: cell-based; details: 36 hours; for number of cells in 100 fields (unchanged cells): cell control 12000
Procedure: as §1
To cells grown on medium RPMI-1640 with 10% calf serum and placed in the wells of a 96-well plate, the virus was added to give a final concentration of 10 particles/ml and the claimed compounds dissolved in DMSO were added to give a final concentrations of 100, 10, and 1 mg/l. We used 5 individual wells for every concentration tested. The plate was incubated for 60 min at 38° C. in a CO2 incubator. After incubation the virus was removed and new medium was added that contained the claimed compounds in the test concentrations.
The results were evaluated according to the existence of a cytopathic action of the virus on the cells after 36 hours of incubation at 38° C. in the CO2 incubator.
The following controls were used in the experiment:
3. Control of antiviral activity of an antiviral preparation—acylcovir.
To access the cytopathic effect of the virus, we counted the number of unchanged cells in 100 fields formed by a specialized grid on the eyepiece of the inversion microscope.

C. trachomatis D323 = experiment: Activity on Chlamydia trachomatis in McCoy and L929 cell cultures; type: cell-based; details: 48 hours; for number of cells in 100 fields (unchanged cells): cell control 8000, infected cell control 6400
Procedure: The antimicrobial activity of the claimed compounds was studied on C. trachomatis […]-a standard strain from the collection of the Department of Microbiology of the Pavlov St.-Petersburg State University. This strain was isolated from a patient with […] urethritis. […] In the work reported here we used McCoy and L929 cell cultures obtained from the Institute of Cytology of the Russian Academy of Sciences. The cells were grown in flasks of neutral glass in RPMI-1640 medium with an addition of 10% fetal calf serum. The experiment was placed in glass (toxicity-free) flat-bottomed flasks and covered with glass. The cells were introduced into the medium in a final concentration of 1·10 cells/ml. […] The sample was centrifuged at 2400 g for 60 min at room temperature and incubated at 37° C. for 2 hours. […] A parallel series of samples was run using medium without the cycloheximide in order to avoid its influence on the test substances. The samples were incubated for 48 hours in a CO2 incubator. […] The results were evaluated from the detection of chlamydia cytoplasmatic inclusion by an immunoenzyme method (MicroTrac Chlamydia trachomatis Direct Specimen Test) and from chlamydia antigens using CylaMonoScreen (Russian-British Joint Venture, 66 Regent's Park Road, London NW 1 7SX).

[4] = Acute toxicity (LD50) in mice; type: in vivo; details: non-linebred white, mouse, in vivo, iv; mice 18-20 g; by mouth or intravenously; observation period 14 days
Procedure: Acute toxicity was determined on non-linebred white mice weighing 18-20 g. Emulsions of certain of the claimed compounds were prepared in a range of concentrations: 1500, 700, 500, 100, 20 and 5 μg/kg. Five animals were used to study each specific concentration of a compound. The preparation was administered once a day by mouth or intravenously. The observation period was 14 days On days 1, 8 and 15 the animals in every group were weighed. For a control we used animals who received the emulsion without the test compounds.
All animals, both that died in the course of the experiment and those that survived to the end of the experiment, were opened to allow macroscopic examination of internal organs.
In the course of the experiment no loss of weight was observed or any change in behavior or external appearance, nor was there any loss of life. Based on the results of the macroscopic examination of internal organs of the animals in the test and the control groups, no pathological findings were made (Table 7).

[5] = test system: herpes simplex type I (VPG-I/Leningrad/248/88); experiment: Activity on herpes simplex virus: cytopathic action of the virus on Vero cells; type: cell-based; details: 50 mg/l, 36 hours

Structure (SMILES)	cytotoxicity of compound ([1]; 30 mg/l)	cytotoxicity of compound ([1]; 100 mg/l)	Interferon-inducing activity of the drug; content of INF in induction mixture ([2]; 1 (unit uncertain))	Interferon-inducing activity of the drug; content of INF in induction mixture ([2]; 10 (unit uncertain))	Interferon-inducing activity of the drug; content of INF in induction mixture ([2]; 100 (unit uncertain))	cytotoxicity of compound (Vero cell culture; 50 mg/l)	cytotoxicity of compound (Vero cell culture; 100 mg/l)	percent protection of the cells against the virus compared to the cell culture control ([3]; 100 mg/l)	number of cells in 100 fields (unchanged cells) ([3]; 100 mg/l)	percent protection of the cells against infection (C. trachomatis D323; 100 mg/l)	number of cells in 100 fields (unchanged cells) (C. trachomatis D323; 100 mg/l)	percent protection of the cells against the virus compared to the cell culture control ([3]; 10 mg/l)	number of cells in 100 fields (unchanged cells) ([3]; 10 mg/l)	percent protection of the cells against infection (C. trachomatis D323; 30 mg/l)	number of cells in 100 fields (unchanged cells) (C. trachomatis D323; 30 mg/l)	LD50 at 14 days [4]	percent protection of the cells against the virus compared to the cell culture control [5]	number of cells in 100 fields (unchanged cells) ([5]; cell control 12000)
Clc1nc(Cl)c2c(n1)Oc1nc(Cl)nc(Cl)c1C2c1ccccc1 [II, 5-Phenyl-2,4,6,8-tetrachloro-5H-pyrano[2,3-d:6,5-d′]dipyrimidine]	cytotoxic	cytotoxic	2.0 ± 0.4 IU/3 · 10^4 lymp/ml	16.0 ± 0.8 IU/3 · 10^4 lymp/ml	40.0 ± 1.4 IU/3 · 10^4 lymp/ml	Cytotoxic	Cytotoxic											
Oc1nc(O)c2c(n1)Oc1nc(O)nc(O)c1C2c1ccc(Cl)cc1 [VI]			6.5 ± 1.4 IU/3 · 10^4 lymp/ml	36.9 ± 1.2 IU/3 · 10^4 lymp/ml	92.2 ± 2.1 IU/3 · 10^4 lymp/ml			50%	6000	15%	6560							
Oc1nc(O)c2c(n1)Oc1nc(O)nc(O)c1C2c1ccc(Br)cc1 [VII]		cytotoxic	5.6 ± 1.6 IU/3 · 10^4 lymp/ml	10.6 ± 1.8 IU/3 · 10^4 lymp/ml	22.2 ± 1.4 IU/3 · 10^4 lymp/ml			30%	3600									
O=[N+]([O-])c1ccc(C2c3c(O)nc(S)nc3Oc3nc(S)nc(O)c32)cc1 [IX, 4-6-Dihydroxy-2,8-dimercapto-5-(p-nitrophenyl)-5H-pyrano[2,3-d:6,5-d′]dipyrimidine]			6.8 ± 2.0 IU/3 · 10^4 lymp/ml	28.0 ± 2.5 IU/3 · 10^4 lymp/ml	64.0 ± 1.8 IU/3 · 10^4 lymp/ml			40%	4800	60%	7360							
Nc1nc2c(ncn2COCCO)c(=O)[nH]1 [Acyclovir, reference compound]												80%	9600					
Oc1nc(O)c2c(n1)Oc1nc(O)nc(O)c1C2c1ccc(I)cc1 [III]			56.5 ± 1.0 IU/3 · 10^4 lymp/ml	112.6 ± 2.0 IU/3 · 10^4 lymp/ml	243.2 ± 1.0 IU/3 · 10^4 lymp/ml			40%	4800									
Oc1nc(O)c2c(n1)Oc1nc(O)nc(O)c1C2 [IV]		cytotoxic	3.8 ± 1.5 IU/3 · 10^4 lymp/ml	29.9 ± 2.0 IU/3 · 10^4 lymp/ml	74.0 ± 1.8 IU/3 · 10^4 lymp/ml		Cytotoxic							40%	7040			
O=[N+]([O-])c1ccc(C2c3c(O)nc(O)nc3Oc3nc(O)nc(O)c32)cc1 [I, 2,4,6,8-Tetrahydroxy-5-(p-nitrophenyl)-5H-pyrano[2,3-d:6,5-d′]dipyrimidine]			8.0 ± 0.8 IU/3 · 10^4 lymp/ml	28.0 ± 1.5 IU/3 · 10^4 lymp/ml	80.0 ± 1.2 IU/3 · 10^4 lymp/ml			80%	9600	80%	7640	60%	7200	70%	7520	1600 mg/kg	70%	8400
COc1nc(O)nc2c1C(c1ccc([N+](=O)[O-])cc1)c1c(OC)nc(O)nc1O2 [V, 2,8-Dihydroxy-4,6-dimethoxy-5-(4-nitrophenyl)-5H-pyrano[2,3-d:6,5-d′]dipyrimidine]		cytotoxic	10.5 ± 2.5 IU/3 · 10^4 lymp/ml	50.6 ± 1.8 IU/3 · 10^4 lymp/ml	108.9 ± 2.0 IU/3 · 10^4 lymp/ml			50%	6000									
